# Reference: publication PMC9050674, “Structure-based inhibitor design for reshaping bacterial morphology” (Communications Biology, 2022)
# Several values for one entry are separate records, joined by “and”; a condition that tells them apart may be missing. Equal entries are not always repeated.
# Legend:
# [1] = target: Pgp3 WT (Campylobacter jejuni, UniProt Q0P921); test: Isothermal-titration calorimetry (ITC) with Pgp3 WT; type: binding, C. jejuni
# Procedure: (§1) The gene encoding the amino-acid sequence of Glu21–Gln273 of Pgp3 from C. jejuni (strain ATCC 33560) was cloned into the expression vector pET-21a (Novagen) producing the recombinant wild-type Pgp3 protein with the C-terminal His6-tag ([…]). The protein expression and purification were conducted according to previously described methods with exception. The HiTrap chelating HP (GE Healthcare) column was washed with the lysis buffer containing 60 mM imidazole and the protein was eluted with a linear gradient from 100 to 500 mM imidazole. The protein was further purified by gel filtration on a HiLoad 16/60 Superdex 200 prep-grade column (GE Healthcare), which was previously equilibrated with 20 mM Tris-HCl pH 8.0 and 200 mM NaCl. The fractions containing the Pgp3 protein were pooled and concentrated to 15 mg mL^−1 for crystallization. The variants of Pgp3 (S169A, R195A, H216A, and H247A) were generated by site-directed mutagenesis using primer sets in Supplementary Table 1 and were purified as described for the WT Pgp3.
# (§2) Using a micro-syringe, 2.5 μL of each inhibitor (2.25 mM) was added at intervals of 200 s to the Pgp3 solution in the cell with gentle stirring (125 rpm). The same ITC condition was applied to evaluate the KD values of BMK-S101 for each Pgp3 variant. All data were fitted to the single-binding-site model. Fitted curves were generated using GraphPad Prism 7. Data are mean ± SEM from triplicate experiments and the ITC thermograms are representative of triplicate experiments.
# [2] = target: T1, Pgp3 S169A (Campylobacter jejuni, UniProt Q0P921, S169A); test: ITC with Pgp3 S169A variant; type: binding, C. jejuni
# T1 sequence (Q0P921 21-273 S169A): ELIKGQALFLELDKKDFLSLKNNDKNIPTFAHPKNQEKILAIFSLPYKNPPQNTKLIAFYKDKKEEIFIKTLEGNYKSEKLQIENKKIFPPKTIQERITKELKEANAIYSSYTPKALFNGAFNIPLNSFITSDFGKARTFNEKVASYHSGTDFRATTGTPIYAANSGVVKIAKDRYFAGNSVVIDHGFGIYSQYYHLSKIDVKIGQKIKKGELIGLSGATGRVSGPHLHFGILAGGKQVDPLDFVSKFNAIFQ
# Procedure: (§3) To evaluate the contributions of the three residues (Ser169, Arg195, and His216) to binding of BMK-S101, they were substituted to Ala, and the effect of each mutation was evaluated using ITC (Fig. 2d and Supplementary Fig. 1).
# as §1, with “Pgp3. […]” for “Pgp3.”
# [3] = target: T2, Pgp3 R195A (Campylobacter jejuni, UniProt Q0P921, R195A); test: ITC with Pgp3 R195A variant; type: binding, C. jejuni
# T2 sequence (Q0P921 21-273 R195A): T1 sequence (Q0P921 21-273 S169A)
# Procedure: as §3
# as §1, with “Pgp3. […]” for “Pgp3.”
# [4] = target: T3, Pgp3 H216A (Campylobacter jejuni, UniProt Q0P921, H216A); test: ITC with Pgp3 H216A variant; type: binding, C. jejuni
# T3 sequence (Q0P921 21-273 H216A): T1 sequence (Q0P921 21-273 S169A)
# Procedure: as §3
# as §1, with “Pgp3. […]” for “Pgp3.”
# [5] = test system: C. jejuni ATCC 33560 WT; test: Cell morphology change monitored by TEM; type: cell-based, Campylobacter jejuni; conditions: 37 °C, 24 h; for minimum concentration causing morphological changes (helical to curved-rod): KL-L9P used for improved permeability
# Excerpt: Next, we investigated whether our inhibitors could transform C. jejuni from the helical- to curved-rod morphology on exposure to the inhibitors (Fig. 5). […] To investigate the effect of inhibitors on the morphology of C. jejuni cells, we exposed the cells to the inhibitors and checked whether the morphology could be altered.
# Cell-morphology change of C. jejuni upon inhibitor treatment was monitored, as described previously with modifications. Briefly, overnight cultures of C. jejuni were harvested from MH agar plates and suspended in MH broth to approximately 1 × 10^6 colony-forming unit (CFU)/mL. A total of 500 μL of the diluted bacterial culture was added into each well of a 24-well plate with 5 μL of two-fold serial dilutions of inhibitor. For the control strain with no inhibitor, the same volume of dilution buffer (20 mM Tris-HCl pH 8.0 and 200 mM NaCl) was used. The plate was incubated under a micro-aerobic condition at 37 °C for 24 h in the static condition. After incubation, 10 μL of the bacterial cultures was placed on formvar/carbon-coated copper grids (200 mesh) and negatively stained with 2% uranyl acetate for 2 s.
# [6] = test system: C. jejuni (ATCC 33560); test: Drug accumulation assay (LC-MS); conditions: for µM (concentration in LC-MS sample): single replicates (First, Second, Third), total volume 200 (r6-r19) or 100 (r23-r30); for µM (concentration in LC-MS sample) / nmol/1011 CFUs / Total nmol: source data Fig. 5b; for nmol/1011 CFUs / Total nmol: single replicates; for Total nmol: total volume 200 or 100
# Procedure: The accumulation assay was adapted from two different methods[42],[43]. […] The culture was grown overnight at 42 °C under the micro-aerobic condition. The cells were harvested at 6000 g for 15 min and washed with 1 × PBS, followed by resuspension in pre-warmed 1 × PBS to ~10^10 CFU/mL. The cell suspension (1.2 mL) was dispensed into a 24-well plate. Each compound to be examined was added into each well (final concentration = 100 μM). […] After incubation with shaking at 37 °C for 20 min, OD600 of each sample was measured, and the cells were harvested at 6000 g for 10 min at 4 °C. The pellets were resuspended in 250 μL of water, followed by three cycles of Freeze-Thaw with a dry ice/ethanol bath and a 37 °C-heating block in order to extract the compounds from C. jejuni. The cells were pelleted at 13,000 g for 5 min at room temperature. The supernatants (220 μL) were transferred to new tubes. The pellets were resuspended in 100 μL of methanol with vigorous vortexing for 1 min, followed by pelleting as before. The supernatants (100 μL) were combined with the solutions previously collected. The residual cell debris were removed at 20,000 g for 15 min at room temperature. The supernatants (300 μL) were dried with Genevac™ miVac Centrifugal Concentrator at room temperature for 5 h. Finally, the samples were resuspended with appropriate solvents and analyzed by LC-MS.
# The suspension was centrifuged and the supernatant was analyzed by LC-MS. LC-MS systems consists of a Bruker impact II ultra-high resolution Qq-time-of-flight mass spectrometer using Hystar 5.0 SR1 software with a Waters Acquity UPLC H-Class system equipped with a quaternary solvent manager, a sample manager-FTN, and a photodiode array detector. The Bruker electrospray ionization source was operated in the positive ion mode, except for BMK-S301 (in the negative ion mode). […] A four-step 10-min LC gradient was as follows: 3 min at 98:2; 3 min to 85:15; 0.1 min to 98:2; 3.9 min at 98:2 for BMK-S101, -S203, and -S301. The ratio of the mobile phases (A = 0.1% formic acid in water, B = 0.1% formic acid in ACN) is given as A:B in LC gradients. […] The quantification was done by integrating the peak areas from extracted-ion chromatograms of corresponding m/z values of each compound.
# [7] = target: Pgp3 (Campylobacter jejuni, UniProt Q0P921); test: biochemical; set-up: species or system C. jejuni
# Procedure: Because DABCYL/FITC is a typical FRET quencher–fluorophore pair, an increase in fluorescent signals can be directly detected when it is processed by Pgp3 (Tang et al., 2013). The kinetic parameters (kcat = 0.0209 ± 0.0006 s^−1 and KM = 6.6 ± 0.7 µM) for the substrate were obtained by fitting the data to the Michaelis-Menten equation (Supplementary Fig. 8a).
# The enzymatic assay for Pgp3 activity was determined using a fluorescein isothiocyanate (FITC) and 4′-([4′-(Dimethylamino)phenyl]-azo)-benzoic acid (DABCYL) pair for FRET. […] The excitation and emission spectra were set at 495 nm and 525 nm, respectively. Pgp3 (0.1 μM) in 20 mM HEPES pH 7.5, 200 mM NaCl, and 0.4 μM of zinc was used in this assay. The reaction was initiated by adding 3 μL of 0.015–2 mM substrate (final 1.56–200 μM) in the total volume of 30 μL of the reaction mixture. Initial velocities were calculated using slopes of fluorescence signal intensity in 3 min after the initiation of the reaction. In order to elucidate the inhibition mechanism of BMK-S301, initial velocities with various concentrations of substrates were measured in the presence of 40 μM BMK-S301. […] The same method was used for the determination of the IC50 values for inhibitors. Inhibitors in each concentration were pre-incubated with 0.1 μM of Pgp3 for 1 h on ice, and initial velocities were determined for 0.1, 10, 50, 100, 200, 500, and 1000 μM of each inhibitor in reaction with 10 μM of substrate. The IC50 values were calculated using GraphPad Prism 7.
# [8] = target: Pgp3 H247A variant; test: ITC with inactive Pgp3 H247A variant; type: binding, C. jejuni; conditions: ITC at 298 K, Pgp3 H247A variant (used to prevent turnover of substrate)
# Procedure: as §1
# as §2, with “Data are mean ± SEM from triplicate experiments and the ITC thermograms are representative of triplicate experiments.” left out
# [9] = target: Pgp3 H247A variant (peptidoglycan peptidase 3, Campylobacter jejuni, Glu21-Gln273) (C. jejuni (strain ATCC 33560)); test: ITC
# [10] = substrate turnover by Pgp3, Michaelis-Menten fit
compound,measurement,setting,value
CC(=O)N[C@@H](CCC[C@@H](NC(C)=O)C(=O)O)C(=O)N[C@H](C)C(=O)NO [BMK-S101],Kd,[1],2.3 ± 0.8 µM
same,Kd,[2],28.3 ± 5.8 µM
same,Kd,[3],17.8 ± 0.8 µM
same,Kd,[4],10.4 ± 2.6 µM
same,concentrations without any detectable changes in the cell shape,[5],≤ 156 µM
same,minimum concentration causing morphological changes (helical to curved-rod),[5],> 313 μM
CC(=O)N[C@@H](CCN(CC(=O)O)Cc1ccccc1)C(=O)N[C@H](C)C(=O)NO [BMK-S201],Kd,[1],1.3 ± 0.1 µM
same,µM (concentration in LC-MS sample),[6],0.024 µM and 0.040 µM and 0.056 µM
same,nmol/1011 CFUs,[6],0.60 nmol/1011 CFUs and 0.97 nmol/1011 CFUs and 1.37 nmol/1011 CFUs
same,Total nmol,[6],0.0048 nmol and 0.0079 nmol and 0.0112 nmol
CC(=O)N[C@@H](CCNCC(=O)O)C(=O)N[C@H](C)C(=O)NO [BMK-S202],Kd,[1],6.6 ± 0.3 µM
same,minimum concentration causing morphological changes (helical to curved-rod),[5],25~50 μM
CC(=O)N[C@@H](CCN(CC(=O)O)CC1CCCC1)C(=O)N[C@H](C)C(=O)NO [BMK-S203],Kd,[1],1.8 ± 0.4 µM
same,minimum concentration causing morphological changes (helical to curved-rod),[5],25~50 μM
same,intracellular concentration (accumulation),"[6]; 100 μM compound, 37 °C, 20 min, LC-MS, mean",0.3 ± 0.1 nmole/10^11 CFU
same,µM (concentration in LC-MS sample),[6],0.0294 µM and 0.0222 µM and 0.0293 µM
same,nmol/1011 CFUs,[6],0.333 nmol/1011 CFUs and 0.240 nmol/1011 CFUs and 0.327 nmol/1011 CFUs
same,Total nmol,[6],0.00294 nmol and 0.00222 nmol and 0.00293 nmol
NS(=O)(=O)c1ccc(CC(=O)NCC(=O)NO)cc1 [BMK-S302],Kd,[1],9.9 ± 1.5 µM
same,IC50,[7],244.6 ± 1.4 µM
same,minimum concentration causing morphological changes (helical to curved-rod),[5],100 μM
NS(=O)(=O)c1ccc(-c2ccc(CC(=O)NO)cc2)cc1 [BMK-S303],Kd,[1],1.4 ± 0.4 µM
same,IC50,[7],22.3 ± 1.5 µM
same,minimum concentration causing morphological changes (helical to curved-rod),[5],400 μM
Ac-L-Ala^1-γ-D-Glu^2-mDAP^3-D-Ala^4−D-Ala^5 [pentapeptide],Kd,[8],6.8 ± 0.3 µM
"FITC-L-Ala^1-D-Glu^2-mDAP^3-D-Ala^4-L-Lys^5-DABCYL [FRET substrate, reference compound]",Km,[7]; [10],6.6 ± 0.7 µM
same,kcat,[7]; [10],0.0209 ± 0.0006 s⁻¹
"pentapeptide (Ac-L-Ala1-γ-D-Glu2-mDAP3-D-Ala4-D-Ala5), peptidoglycan stem peptide",Kd,[9],6.8 µM
